Read-outs that look alike come from different tables or passages of the source.

Type in all cases: biochemical
Experiment [1] concerns the target EGFR T790M/L858R kinase domain (Homo sapiens (Human), UniProt P00533, L858R/T790M). As to the kind of experiment: EGFR enzymatic assay, TR-FRET, EGFR T790M/L858R. (Time-resolved FRET reads energy transfer from a long-lived donor to a nearby acceptor.)
The target in another experiment is EGFR L858R kinase domain (Homo sapiens (Human), UniProt P00533, L858R). As to the kind of experiment: EGFR enzymatic assay, TR-FRET, EGFR L858R.
The target in another experiment is C-Raf (Y340D/Y341D) (Homo sapiens (Human), UniProt P04049, Y340D/Y341D). Put plainly: Raf IC50 assay, TR-FRET, C-Raf (Y340D/Y341D). The following applies: 0.1 mM ATP. Here is the method: Compounds disclosed herein were tested against B-Raf (V600E) (PV3849, from Invitrogen) or C-Raf (Y340D/Y341D) (PV3805, from Invitrogen) in a time-resolved fluorescence energy transfer assay. The assay was carried out in reactions (10 μL) containing 0.0625 nM B-Raf or 0.5 nM C-Raf, 25 mM Tris pH7.4, 10 mM MgCl2, 0.5 mM EGTA, 0.5 mM Na3VO4, 5 mM beta-glycerophosphate, 0.01% Triton X-100, 2.5 mM DTT, 0.1% BSA, 0.1 mM ATP, 13.7 nM GST-tagged MEK1 (Full-length protein with K97R mutation, recombinant protein purified from bacterial expression system) and 0-5 μM compounds disclosed herein (final concentration of 1% DMSO). The enzyme was incubated with the compounds disclosed herein at room temperature for 60 minutes and the reactions were initiated by the addition of ATP and GST-MEK1. After reaction at room temperature for 60 minutes, an equal volume of stop/detection solution was added according to the manufacture's instruction (CisBio Bioassays). The stop/detection solution contained Eu^3+ cryptate-conjugated anti-phospho MEK1/2 (Ser217/221) rabbit polyclonal antibody and d2-conjugated anti-GST mouse monoclonal antibody in buffer containing 25 mM Tris pH7.4, 400 mM KF, 50 mM EDTA, 0.01% BSA and 0.01% Triton X-100. Plates were sealed and incubated at room temperature for 2 hours, and the TR-FRET signals (ratio of fluorescence emission at 665 nm over emission at 620 nm with excitation at 337 nm wavelength) were recorded on a PHERAstar FS plate reader (BMG Labtech). Phosphorylation of MEK1 led to the binding of anti-phospho-MEK1/2 antibody to GST-MEK1 protein that place fluorescent donor (Eu^3+ crypate) in close proximity to the accepter d2 on the anti-GST antibody, thus resulting in a high degree of fluorescence resonance energy transfer from the donor fluorophore (at 620 nm) to the acceptor fluorophore (at 665 nm). […] The IC50 for each compound was derived from fitting the dose-response % inhibition data to the four-parameter logistic model by Graphpad Prism software.

A further experiment addresses B-Raf (V600E) (Homo sapiens (Human), UniProt P15056, V600E). Put plainly: Raf IC50 assay, TR-FRET, B-Raf (V600E). The settings on record: 0.1 mM ATP; read-out: IC50 BRAF-V600E.
In a further experiment the target is WT EGFR kinase domain (Homo sapiens (Human), UniProt P00533). As to the kind of experiment: EGFR enzymatic assay, TR-FRET, WT EGFR.
A further experiment has as its target wild type B-Raf (Homo sapiens (Human), UniProt P15056). As to the kind of experiment: WT BRaf IC50 assay, TR-FRET.
Setting [2] is: Km ATP ([…] ATP), read-out: IC50 Braf-WT Km ATP.

wild type B-Raf, sequence (P15056 whole entry): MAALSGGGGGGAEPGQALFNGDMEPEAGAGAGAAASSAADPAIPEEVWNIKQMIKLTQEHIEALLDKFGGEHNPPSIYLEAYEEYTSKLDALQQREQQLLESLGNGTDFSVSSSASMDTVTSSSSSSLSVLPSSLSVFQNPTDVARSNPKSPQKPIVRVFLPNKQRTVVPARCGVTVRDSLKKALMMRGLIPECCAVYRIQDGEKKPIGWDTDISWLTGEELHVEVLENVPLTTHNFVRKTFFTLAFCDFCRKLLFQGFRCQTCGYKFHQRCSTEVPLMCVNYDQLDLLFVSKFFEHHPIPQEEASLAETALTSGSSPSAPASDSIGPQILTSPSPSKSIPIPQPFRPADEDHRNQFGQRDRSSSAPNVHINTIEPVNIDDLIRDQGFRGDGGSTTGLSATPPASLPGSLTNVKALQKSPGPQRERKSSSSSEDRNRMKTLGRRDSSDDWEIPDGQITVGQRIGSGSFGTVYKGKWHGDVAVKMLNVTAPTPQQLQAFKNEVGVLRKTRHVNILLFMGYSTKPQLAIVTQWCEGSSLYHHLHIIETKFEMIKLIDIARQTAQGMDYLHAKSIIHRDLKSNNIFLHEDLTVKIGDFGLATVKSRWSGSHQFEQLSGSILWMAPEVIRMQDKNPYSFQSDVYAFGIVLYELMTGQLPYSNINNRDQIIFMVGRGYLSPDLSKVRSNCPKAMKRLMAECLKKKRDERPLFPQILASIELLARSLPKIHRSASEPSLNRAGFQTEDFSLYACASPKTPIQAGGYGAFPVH
EGFR T790M/L858R kinase domain, sequence (P00533 669-1210 T790M/L858R): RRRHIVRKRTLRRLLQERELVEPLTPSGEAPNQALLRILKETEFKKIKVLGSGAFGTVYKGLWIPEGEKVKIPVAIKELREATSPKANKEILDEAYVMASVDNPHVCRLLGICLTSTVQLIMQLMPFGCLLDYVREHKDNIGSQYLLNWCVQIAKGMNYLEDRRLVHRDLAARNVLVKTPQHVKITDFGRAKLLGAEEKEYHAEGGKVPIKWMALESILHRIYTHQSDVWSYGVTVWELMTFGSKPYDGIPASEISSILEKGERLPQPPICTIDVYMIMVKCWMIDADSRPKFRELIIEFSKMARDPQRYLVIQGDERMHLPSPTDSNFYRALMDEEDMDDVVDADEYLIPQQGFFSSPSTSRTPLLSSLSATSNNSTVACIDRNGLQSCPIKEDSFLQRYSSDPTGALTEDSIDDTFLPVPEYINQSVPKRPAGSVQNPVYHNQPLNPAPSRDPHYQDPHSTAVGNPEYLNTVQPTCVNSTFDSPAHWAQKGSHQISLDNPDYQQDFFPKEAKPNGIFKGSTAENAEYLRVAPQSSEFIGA
WT EGFR kinase domain, sequence (P00533 669-1210): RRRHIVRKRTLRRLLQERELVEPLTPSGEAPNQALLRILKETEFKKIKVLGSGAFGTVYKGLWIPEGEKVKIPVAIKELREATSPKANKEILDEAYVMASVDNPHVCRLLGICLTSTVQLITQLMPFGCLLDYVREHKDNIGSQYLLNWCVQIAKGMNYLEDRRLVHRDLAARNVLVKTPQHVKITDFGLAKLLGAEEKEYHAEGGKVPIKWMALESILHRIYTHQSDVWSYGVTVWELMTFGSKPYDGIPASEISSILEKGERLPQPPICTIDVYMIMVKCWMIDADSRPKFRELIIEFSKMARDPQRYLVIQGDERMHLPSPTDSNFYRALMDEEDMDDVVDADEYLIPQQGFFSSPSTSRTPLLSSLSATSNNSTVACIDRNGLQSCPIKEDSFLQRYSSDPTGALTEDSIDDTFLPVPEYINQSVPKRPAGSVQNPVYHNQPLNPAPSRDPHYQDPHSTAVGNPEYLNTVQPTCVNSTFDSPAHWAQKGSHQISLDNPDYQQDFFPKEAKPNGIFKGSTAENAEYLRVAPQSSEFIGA
C-Raf (Y340D/Y341D), sequence (P04049 whole entry Y340D/Y341D): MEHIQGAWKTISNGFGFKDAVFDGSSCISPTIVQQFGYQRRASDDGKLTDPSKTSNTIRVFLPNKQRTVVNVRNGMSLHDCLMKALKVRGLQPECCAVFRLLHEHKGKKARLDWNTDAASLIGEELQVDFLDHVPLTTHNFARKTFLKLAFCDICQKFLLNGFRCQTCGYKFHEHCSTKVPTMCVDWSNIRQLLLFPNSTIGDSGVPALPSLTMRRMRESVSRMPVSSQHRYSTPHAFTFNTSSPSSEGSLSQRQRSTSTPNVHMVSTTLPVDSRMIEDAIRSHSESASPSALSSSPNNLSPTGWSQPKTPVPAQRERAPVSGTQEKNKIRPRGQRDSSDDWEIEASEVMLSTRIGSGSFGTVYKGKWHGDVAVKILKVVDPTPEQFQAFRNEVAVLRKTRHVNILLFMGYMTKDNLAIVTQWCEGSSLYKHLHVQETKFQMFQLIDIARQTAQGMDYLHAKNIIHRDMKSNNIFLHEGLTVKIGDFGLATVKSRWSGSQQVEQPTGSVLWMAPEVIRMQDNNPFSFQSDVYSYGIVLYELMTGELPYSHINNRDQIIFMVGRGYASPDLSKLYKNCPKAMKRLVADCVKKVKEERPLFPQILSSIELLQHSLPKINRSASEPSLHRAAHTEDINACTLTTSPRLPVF
EGFR L858R kinase domain, sequence (P00533 669-1210 L858R): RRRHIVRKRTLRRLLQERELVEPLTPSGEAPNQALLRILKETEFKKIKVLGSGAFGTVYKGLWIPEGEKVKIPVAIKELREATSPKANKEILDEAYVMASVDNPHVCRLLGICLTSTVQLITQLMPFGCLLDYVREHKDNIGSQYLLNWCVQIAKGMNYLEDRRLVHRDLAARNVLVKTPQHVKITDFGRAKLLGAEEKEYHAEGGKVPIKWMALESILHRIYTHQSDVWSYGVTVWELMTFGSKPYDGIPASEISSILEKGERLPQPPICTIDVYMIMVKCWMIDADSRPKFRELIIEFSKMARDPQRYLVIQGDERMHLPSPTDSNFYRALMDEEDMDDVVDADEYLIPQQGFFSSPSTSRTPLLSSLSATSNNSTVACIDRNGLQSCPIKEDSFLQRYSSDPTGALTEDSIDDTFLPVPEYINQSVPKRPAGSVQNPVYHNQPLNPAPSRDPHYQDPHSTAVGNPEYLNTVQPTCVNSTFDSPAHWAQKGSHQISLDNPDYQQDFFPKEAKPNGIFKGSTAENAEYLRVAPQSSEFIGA
B-Raf (V600E), sequence (P15056 whole entry V600E, the tested form may be a part): as the sequence (P15056 whole entry) above, with V600E counted along it

As a reminder, the IC50 is the point on the concentration scale where inhibition reaches its midpoint. Consider `CN(C)[C@H]1CCCN(Cc2ccc(C(=O)N[C@@H]3[C@H]4Oc5ccc(Oc6ccnc7c6CCC(=O)N7)cc5[C@@H]34)cc2C(F)(F)F)C1` [Compound 1.32], for which the IC50 in experiment [1] was determined as 1.3 nM; at EGFR L858R kinase domain, 0.47 nM; on C-Raf (Y340D/Y341D) it was 2.5 nM; on B-Raf (V600E), 13 nM; against WT EGFR kinase domain it was 1.5 nM; at wild type B-Raf (setting [2]), 21 nM.
`C[C@H]1CN(Cc2ccc(C(=O)N[C@@H]3[C@H]4Oc5ccc(Oc6ccnc7c6CCC(=O)N7)cc5[C@@H]34)cc2C(F)(F)F)CCN1` [Compound 1.29, 4-(((S)-3-methylpiperazin-1-yl)methyl)-N-((1S,1aS,6bS)-5-((7-oxo-5,6,7,8-tetrahydro-1,8-naphthyridin-4-yl)oxy)-1a,6b-dihydro-1H-cyclopropa[b]benzofuran-1-yl)-3-(trifluoromethyl)benzamide]: the IC50 in experiment [1] is 0.3 nM; against EGFR L858R kinase domain, 0.14 nM; against C-Raf (Y340D/Y341D) it was 1.1 nM; at B-Raf (V600E), 6.2 nM; against WT EGFR kinase domain it was 0.61 nM; on wild type B-Raf (setting [2]) it was 9.1 nM.
Consider `O=C1CCc2c(Oc3ccc4c(c3)[C@H]3[C@H](NC(=O)c5cccc(C(F)(F)F)c5)[C@H]3O4)ccnc2N1` [Compound 1.35], for which the IC50 in experiment [1] came to 47 nM; against EGFR L858R kinase domain, 9.7 nM; against C-Raf (Y340D/Y341D) it was 0.33 nM; on B-Raf (V600E) it was 1.2 nM; against WT EGFR kinase domain, 18 nM; against wild type B-Raf (IC50 Braf-WT […] ATP, […] ATP) it was 12 nM. The IC50 at wild type B-Raf (setting [2]) is 4.4 nM.
Regarding `CCN1CCN(Cc2cc(C(=O)N[C@@H]3[C@H]4Oc5ccc(Oc6ccnc7c6CCC(=O)N7)cc5[C@@H]34)cc(C(F)(F)F)c2)CC1` [Compound 1.5], the IC50 in experiment [1] worked out at 7.1 nM; against EGFR L858R kinase domain it was 1 nM; against C-Raf (Y340D/Y341D), 2.1 nM; on B-Raf (V600E), 12 nM; on WT EGFR kinase domain it was 2.3 nM; against wild type B-Raf (IC50 Braf-WT […] ATP, […] ATP), 39 nM. In addition, the IC50 at wild type B-Raf (setting [2]) was found to be 15 nM.
Regarding `CN(C)[C@@H]1CCCN(Cc2ccc(C(=O)N[C@@H]3[C@H]4Oc5ccc(Oc6ccnc7c6CCC(=O)N7)cc5[C@@H]34)cc2C(F)(F)F)C1` [Compound 1.31, 4-(((R)-3-(dimethylamino)piperidin-1-yl)methyl)-N-((1S,1aS,6bS)-5-((7-oxo-5,6,7,8-tetrahydro-1,8-naphthyridin-4-yl)oxy)-1a,6b-dihydro-1H-cyclopropa[b]benzofuran-1-yl)-3-(trifluoromethyl)benzamide], the IC50 in experiment [1] is 1.9 nM; against EGFR L858R kinase domain, 0.44 nM; on C-Raf (Y340D/Y341D), 0.78 nM; on B-Raf (V600E), 15 nM; on WT EGFR kinase domain, 0.99 nM; at wild type B-Raf (setting [2]), 10 nM.
On to `CCN1CCN(Cc2ccc(C(=O)N[C@@H]3[C@H]4Oc5ccc(Oc6ccnc7c6CCC(=O)N7)cc5[C@@H]34)cc2F)CC1` [Compound 1.4], for which the IC50 amounted to 2.3 nM in experiment [1]; 0.46 nM on EGFR L858R kinase domain; 1.5 nM against C-Raf (Y340D/Y341D); 8.1 nM at B-Raf (V600E); 1.4 nM at WT EGFR kinase domain; 31 nM at wild type B-Raf (IC50 Braf-WT […] ATP, […] ATP). The IC50 at wild type B-Raf (setting [2]) was 7.9 nM.
Take `CCN1CCN(Cc2ccc(C(=O)N[C@@H]3[C@H]4Oc5ccc(Oc6ccnc(C(=O)NC)c6)cc5[C@@H]34)cc2C(F)(F)F)CC1` [Compound 2.3, 4-(((1S,1aS,6bS)-1-(4-((4-ethylpiperazin-1-yl)methyl)-3-(trifluoromethyl)benzamido)-1a,6b-dihydro-1H-cyclopropa[b]benzofuran-5-yl)oxy)-N-methylpicolinamide]: the half-maximal inhibitory concentration (IC50) worked out at 22 nM in experiment [1]; 4.7 nM at EGFR L858R kinase domain; 12 nM against C-Raf (Y340D/Y341D); 54 nM on B-Raf (V600E); 7.1 nM against WT EGFR kinase domain; 52 nM on wild type B-Raf (setting [2]).
